The IC50 is the midpoint of a concentration-inhibition curve. Read a low IC50 as greater potency.

Each structure is given as a SMILES string. Bounds are passed on as bounds.

In the test the target is T1, Autotaxin enzyme (ATX) (Homo sapiens, UniProt Q13822).
T1 construct: purchased Echelon Biosciences, Inc. E-4000
Nature of the test: In vitro ATX assay (enzymatic ATX inhibition, LPC 14:0 substrate, choline oxidase/HRP absorbance readout). The test is classed as biochemical. The note with it: 0.3 mM LPC 14:0, 37° C., 4 hours, absorbance 555 nm. The method, then:
• Assay buffer: 100 mM Tris-HCl, pH 9.0, 500 mM NaCl, 5 mM MgCl2, 30 μM CoCl2, 0.05% Triton X-100 • Assay buffer II: 4.5 mM 4-AAP, 2.7 mM TOOS, 21.2 U/mL HRP, 3 U/mL CO, In 50 mM Tris-HCl pH 8.0, 4.5 mM MgCl2
A compound preparation plate (Nunc 249944) was prepared by adding 30 mM stock solution (in DMSO) of test compound and performing a serial full-log dilution down to 30 nM. Two μL/well were transferred from the first compound prep plate to a compound dilution plate (Corning, 3641) and 198 μL assay buffer I was added for a […].
A 10 ng/mL solution of ATX was prepared by diluting in assay buffer I, and 80 μL/well were added to the assay plate (Corning, 3641); negative control wells contained 80 μL/well assay buffer I only (no ATX). Ten μL/well from the compound dilution plate (containing serially diluted test compound or DMSO) were added to the assay plate, which was then incubated at 37° C. for 15 minutes. A solution of LPC 14:0 was prepared in assay buffer I at 3 mM and 10 μl/well were added to the assay plate, for a final concentration of 0.3 mM LPC, and returned to 37° C. incubator for 4 hours. After 4 hour incubation, 100 μL/well of assay buffer II was added to all wells of the assay plate. The plate was incubated at RT for 15 minutes, prior to reading on FlexStation in absorbance mode, 555 nm. Results in the enzymatic ATX inhibition assay are provided for compounds of formula (I). An IC50 value of “A” is less than 100 nM, “B” is equal to or greater than 100 nM but less than 1 μM, “C” is equal to or greater than 1 μM.
In the case of `CC(C)(O)C1CCN1C(=O)c1cnc(N[C@@H]2Cc3ccc(Cl)cc3C2)nc1` (stereo partly drawn) [Example 131, (2-(((R)-5-Chloro-2,3-dihydro-1H-inden-2-yl)amino)pyrimidin-5-yl)(2-(2-hydroxypropan-2-yl)azetidin-1-yl)methanone], the IC50 is less than 100 nM. `CC(C)(C)OC(=O)N1CC2(CCN2C(=O)c2cnc(NCc3cc(OC(F)(F)F)cc(C4CC4)c3)nc2)C1` [Example 92, tert-butyl 1-(2-((3-cyclopropyl-5-(trifluoro-methoxy)benzyl)amino)py-rimidine-5-carbonyl)-1,6-diazaspiro[3.3]heptane-6-carboxylate] returned an IC50 of less than 100 nM.

On to `O=C(c1cnc(NCc2cc(OC(F)(F)F)cc(C3CC3)c2)nc1)N1CCC12CN(C1CCC1)C2` [Example 144, (6-Cyclobutyl-1,6-diazaspiro[3.3]heptan-1-yl)(2-((3-cyclopropyl-5-(trifluoromethoxy)benzyl)amino)pyrimidin-5-yl)methanone], for which the IC50 was less than 100 nM. Regarding `O=C(c1cnc(N[C@@H]2Cc3ccc(Br)cc3C2)nc1)N1CCC12COC2` [Example 62], the 50% inhibitory concentration (IC50) was less than 100 nM. As for `CS(=O)(=O)c1cccc(CNc2ncc(C(=O)N3CCC34COC4)cn2)c1` [Example 16], the IC50 was not below 1000 nM. The molecule `O=C(c1cnc(NCc2cc(C3CC3)cc(C3CC3)c2)nc1)N1CCC12COC2` [Example 37] showed an IC50 of less than 100 nM. Molecule `CC(C)Oc1cc(CNc2ncc(C(=O)N3CCC34COC4)cn2)cc(OC(C)C)c1` [Example 52] returned an IC50 of less than 100 nM. Next, `CC1CCN1C(=O)c1cnc(NCc2cc(OC(F)(F)F)cc(C(C)(C)C)c2)nc1` (stereo not shown) [Example 5]: 100 to 1000 nM; `CC(C)Oc1ccc2c(c1)CC(Nc1ncc(C(=O)N3CCC34COC4)cn1)C2` (stereo not shown) [Example 161, (2-((5-Isopropoxy-2,3-dihydro-1H-inden-2-yl)amino)pyrimidin-5-yl)(6-oxa-1-azaspiro[3.3]heptan-1-yl)methanone]: 100 to 1000 nM; `CC1(C)CCN1C(=O)c1cnc(NC2Cc3ccc(Cl)cc3C2)nc1` (stereo not shown) [Example 41]: less than 100 nM. For `O=C(c1cnc(NCc2cc(OC(F)(F)F)cc(C3CC3)c2)nc1)N1CCC12CN(CC(F)F)C2` [Example 149, (2-((3-Cyclopropyl-5-(trifluoromethoxy)benzyl)amino)pyrimidin-5-yl) (6-(2,2-difluoroethyl)-1,6-diazaspiro[3.3]heptan-1-yl)methanone], the IC50 is less than 100 nM. The result for `O=C(c1cnc(NCc2cc(OC(F)(F)F)cc(C3CC3)c2)nc1)N1CC2(C1)CS(=O)(=O)C2` [Example 106, (2-((3-cyclopropyl-5-(trifluoromethoxy)benzyl)ami-no)pyrimidin-5-yl)(2,2-dioxido-2-thia-6-azaspiro[3.3]heptan-6-yl)methanone] reads 100 to 1000 nM; that for `CN1CCC2(CC1)CCN2C(=O)c1cnc(NCc2cc(OC(F)(F)F)cc(C3CC3)c2)nc1` [Example 112, (2-((3-cyclopropyl-5-(trifluoromethoxy)benzyl)ami-no)pyrimidin-5-yl)(7-methyl-1,7-diazaspiro[3.5]nonan-1-yl)methanone], less than 100 nM. Turning to `CC1CC(C)N1C(=O)c1cnc(NCc2cc(OC(F)(F)F)cc(C3CC3)c2)nc1` (single isomer, unassigned) [Example 119, (2-((3-Cyclopropyl-5-(trifluoromethoxy)-benzyl)amino)pyrimidin-5-yl)(2,4-dimethylazetidin-1-yl)methanone], the concentration for half-maximal inhibition (IC50) is not below 1000 nM. In the case of `O=C(c1cnc(NC2Cc3ccc(Cl)cc3C2)nc1)N1CCC12CCOCC2` (stereo not shown) [Example 47], the IC50 is less than 100 nM. For `O=C(c1cnc(NC2Cc3ccc(Cl)cc3C2)nc1)N1CCC1C(F)F` (stereo not shown) [Example 45], the IC50 was less than 100 nM.

Consider `COC[C@H]1CCCN1C(=O)c1cnc(NCc2cc(OC(F)(F)F)cc(C3CC3)c2)nc1` [Example 95, (R)-(2-((3-cyclopropyl-5-(trifluoromethxoy)benzyl)ami-no)pyrimidin-5-yl)(2-(methoxymethyl)pyrrolidin-1-yl)methanone], for which the IC50 was in the range of 100 to 1000 nM.

Consider `COc1cc(CNc2ncc(C(=O)N3CCC34COC4)cn2)cc(OC(F)(F)F)c1` [Example 30], for which the IC50 lay within 100 to 1000 nM. The result for `CC1CCN1C(=O)c1cnc(NC2Cc3ccc(Cl)cc3C2)nc1` (stereo not shown) [Example 44] reads less than 100 nM; that for `O=C(c1cnc(NC2Cc3ccc(F)cc3C2)nc1)N1CCC12COC2` (stereo not shown) [Example 42], less than 100 nM; that for `CC1(O)CN(C(=O)c2cnc(NCc3cc(OC(F)(F)F)cc(C4CC4)c3)nc2)C1` [Example 87, (2-((3-cyclopropyl-5-(trifluoromethoxy)benzyl)ami-no)pyrimidin-5-yl)(3-hydroxy-3-methylazetidin-1-yl)methanone], 100 to 1000 nM. On to `CN1CCCC2(CCN2C(=O)c2cnc(NCc3cc(OC(F)(F)F)cc(C4CC4)c3)nc2)C1` (stereo not shown) [Example 156, (2-((3-Cyclopropyl-5-(trifluoromethoxy)benzyl)amino)pyrimidin-5-yl)(6-methyl-1,6-diazaspiro[3.5]nonan-1-yl)methanone], for which the IC50 is less than 100 nM. The result for `CN(C)CC1CN(C(=O)c2cnc(NCc3cc(OC(F)(F)F)cc(C4CC4)c3)nc2)C1` [Example 100, (2-((3-cyclopropyl-5-(trifluoromethoxy)benzyl)ami-no)pyrimidin-5-yl)(3-((dimethylamino)methyl)azeti-din-1-yl)methanone] reads 100 to 1000 nM. Regarding `CS(=O)(=O)CCN1CC2(CCN2C(=O)c2cnc(NCc3cc(OC(F)(F)F)cc(C4CC4)c3)nc2)C1` [Example 150, (2-((3-Cyclopropyl-5-(trifluoromethoxy)benzyl)amino)pyrimidine-5-yl) (6-(2-(methylsulfonyl)ethyl)-1,6-diazaspiro[3.3]heptan-1-yl)methanone], the IC50 is less than 100 nM. Consider `O=C(c1cnc(NC2Cc3ccc(C4CC4)cc3C2)nc1)N1CCC12COC2` (stereo not shown) [Example 125, (2-((5-Cyclopropyl-2,3-dihydro-1H-inden-2-yl)amino)pyrimidin-5-yl)(6-oxa-1-azaspiro[3.3]heptan-1-yl)methanone], for which the IC50 was less than 100 nM. Next, `O=C(c1cnc(NCc2cc(F)cc(OC(F)(F)F)c2)nc1)N1CCC12COC2` [Example 26]: 100 to 1000 nM; `CC(C)(O)C1CN(C(=O)c2cnc(NCc3cc(OC(F)(F)F)cc(C4CC4)c3)nc2)C1` [Example 84, (2-((3-cyclopropyl-5-(trifluoromethoxy)benzyl)ami-no)pyrimidin-5-yl)(3-(2-hydroxypropan-2-yl)azetidin-1-yl)methanone]: 100 to 1000 nM; `CCOc1cc(CNc2ncc(C(=O)N3CCC34COC4)cn2)cc(OC(F)(F)F)c1` [Example 31]: less than 100 nM. Take `CCOc1cc(CNc2ncc(C(=O)N3CCC34COC4)cn2)cc(OCC)c1` [Example 53]: the IC50 was less than 100 nM. Next, `COCC1CN(C(=O)c2cnc(NCc3cc(OC(F)(F)F)cc(C4CC4)c3)nc2)C1` [Example 99, (2-((3-cyclopropyl-5-(trifluoromethoxy)benzyl)ami-no)pyrimidin-5-yl)(3-(methoxymethyl)azetidin-1-yl)methanone]: 100 to 1000 nM. The result for `O=C(c1cnc(NC2Cc3ccccc3C2)nc1)N1CCC1` [Example 8] reads 100 to 1000 nM.

The values above are taken from patent publication US20210363152A1, “AMINOAZINE AMIDES” (Hoffmann-La Roche Inc., priority 2018, published 2021).
